Laboratory results: patent US3981868A
Converted amounts (≈) assume the structure as drawn.

Tests used:
[1] = system: Streptococcus pyogenes C 203; test: agar-dilution streak-plate antibacterial assay (8); type: cell-based; conditions: C203, read-out: Minimal inhibitory conc.
Description: (§1) The novel compounds of the present invention are also useful as antimicrobial agents. […] In this assay, the compounds to be tested are made up to contain 2.5 mg. of test compound per milliliter of solution. Observing sterile techniques, two-fold serial dilutions are made of each test solution. One milliliter of each of the original solutions and of each of the serial dilutions is then added to 9 ml. of warm sterile nutrient agar capable of supporting growth of the bacterial test cultures. A second set of agar dilutions is prepared identical to the first except that the nutrient agar is designed to support the growth of the fungal test cultures. […] The test bacteria and yeast-like fungi are prepared for use by growing in broth overnight. The spores of the filamentous fungi are harvested from mature agar slant cultures and are suspended in sterile physiological saline solution. A loopful of each of the resulting live suspensions is then, still employing sterile techniques, streaked upon the surfaces of each of the agar plates and the resulting streaked plates are then incubated. After an appropriate period of time, each of the streaks on each of the plates is inspected visually and the extent, if any, of bacterial or fungal growth is noted. The minimal inhibitory concentration (expressed in micrograms per milliliter) is defined as the concentration of test compound causing complete inhibition of growth of any particular organism. In a representative operation, and merely by way of illustration, the minimal inhibitory concentration of typical compounds of the present invention against a variety of test organisms as determined in the above-described assay are set forth in Tables II and III below: […]

[2] = system: Microsporum canis ATCC 10214; test: agar-dilution streak-plate antifungal assay (1); type: cell-based; conditions: ATCC10214, read-out: Minimal inhibitory conc.
Description: as §1

[3] = system: Staphylococcus aureus Rose ATCC 14154; test: agar-dilution streak-plate antibacterial assay (7); type: cell-based; conditions: ATCC14154, read-out: Minimal inhibitory conc.
Description: as §1

[4] = system: Trichophyton tonsurans NIH 662; test: agar-dilution streak-plate antifungal assay (3); type: cell-based; conditions: NIH662, read-out: Minimal inhibitory conc.
Description: as §1

[5] = system: Mycobacterium smegmatis ATCC 606; test: agar-dilution streak-plate antibacterial assay (6); type: cell-based; conditions: Mycolicibacterium smegmatis, ATCC606, read-out: Minimal inhibitory conc.
Description: as §1

[6] = system: Microsporum gypseum ATCC 14683; test: agar-dilution streak-plate antifungal assay (2); type: cell-based; conditions: Nannizzia gypsea, ATCC14683, read-out: Minimal inhibitory conc.
Description: as §1

Trichophyton rubrum E 97 = test: agar-dilution streak-plate antifungal assay (5); type: cell-based; conditions: E97, read-out: Minimal inhibitory conc.
Description: as §1

gastric acid secretion = test: inhibition of gastric acid secretion (pylorus-ligated rat, Shay rat); type: in vivo, rats (male, CFE strain); conditions: intraduodenal dose 100 mg./kg. body weight, 3 hours, 20% or more considered active
Description: The novel compounds of the present invention are also effective inhibitors of gastric acid secretion and of ulcer development in experimental animals, and thus are potentially valuable as agents for the control of gastric acid secretion and of gastric erosion and as anti-ulcer agents. Gastric acid secretion inhibitory action is usually measured by the "Shay rat" procedure ^(1,2) with some modifications as follows.
The rats (male, CFE strain) were starved for 48 hours (water was given ad libitum) to permit evacuation of stomach contents. On the morning of the experiment, under ether anesthesia, the abdominal region was shaved and a midline incision (1-11/2 inches) was made with a scalpel. With the help of a closed curved hemostat the duodenum was picked up. Upon getting the duodenum into view fingers were used to pull the stomach through the opening, the stomach was then gently manipulated with fingers to rid the stomach of air and residual matter which were pushed through the pylorus. Two 5-inch sutures were drawn under the pyloric-duodenal juncture. A ligature, at the juncture, was formed with one of the threads. The second ligature was also formed by not tightened.
The test compound or the vehicle, usually 1 ml./100 g. body weight, were injected into the duodenum as close as possible to the first ligature. After injection the second ligature was tightened below the injection site to minimize leakage. The stomach was placed back through the opening into the abdominal cavity, the area of incision was washed with saline and the incision was closed with autoclips. (Ocasionally, instead of an intraduodenal injection, animals were dosed by the oral or subcutaneous route. In the latter case, dosing was done thirty to sixty minutes before the operation).
The abdominal cavity was exposed by cutting with scissors and the esophagus close to the stomach was clamped off with a hemostat, the stomach was removed by cutting above the hemostat (the espohagus was cut) and between the two sutures. Extraneous tissue was removed, the stomach washed with saline and blotted on gauze. A slit was carefully made in the stomach which was held over a funnel and the contents were collected in a centrifuge tube. The stomach was further cut along the outside edge and turned inside out. Two ml. of water were used to wash the stomach contents into the respective centrifuge tube. The combined stomach contents and wash were then centrifuged out for 10 minutes in the International Size 2 Centrifuge (setting at 30). The supernatant was collected, volume measured and recorded, 2 drops of phenolphthalein indicator (1% in 95% ethanol) were added and the solution was titrated with 0.02N NaOH (or with 0.04N NaOH when large volumes of stomach contents were encountered) to pH 8.4 (because of usual coloring of the stomach contents, phenolphthalein was only used to permit visual indication that the end point was near) and the amount of acid present was calculated.
Compounds inducing inhibition of gastric acid secretion of 20% or more were considered active. In a representative operation, and merely by way of illustration, the results obtained with this assay with typical compounds of the present invention are given in Table IIIA.

diastolic blood pressure = test: hypotensive activity in anesthetized rats (minimal dose lowering diastolic blood pressure about 10 mm.); type: in vivo, Male Wistar strain rats; conditions: Rattus norvegicus; intravenous; dose producing a decrease of about 10 mm. in diastolic blood pressure
Description: This procedure is a modification of the technique described by Pike et al., Prostaglandins, Nobel Symposium 2, Stockholm, June, 1966; p. 165.
Male Wistar strain rats (Royal Hart Farms) averaging approximately 250 grams in weight were fastened to rat boards in a supine position by means of canvas vests and limb ties. The femoral area was infiltrated subcutaneously with lidocaine and the iliac artery and vein were exposed and cannulated. Arterial blood pressure (systolic/diastolic) was recorded using a Statham P23 Db pressure transducer-Offner dynograph system. To obtain a stable blood pressure, the animals were anesthetized before use with pentobarbital, 30 mg./kg. of body weight intravenously, and also were given hexamethonium bitartrate, 2 mg./kg., of body weight intravenously. The test compounds were prepared by ultrasonic dispersion in a saline-Tween 80 vehicle. A constant intravenous dose volume of 0.5 ml. was administered and test doses ranged from 0.1 to 10.0 mg./kg. of body weight. Increasing or decreasing doses were selected depending on the dose response obtained. In Table I below are set forth the minimal doses required to produce a decrease of about 10 mm. in diastolic blood pressure for typical compounds of the present invention.

[7] = system: Trichophyton mentagrophytes E 11?; test: agar-dilution streak-plate antifungal assay (4); type: cell-based; conditions: read-out: Minimal inhibitory conc.
Description: as §1

[8] = system: dl-PGE1-induced contraction of gerbil colon; test: inhibition of dl-PGE1-induced contraction of gerbil colon; conditions: sub-maximal challenge, 20 ng./ml. dl-PGE1; 50% inhibition of maximum response; approximate
Description: Testing for prostaglandin antagonist action is carried out in the following manner.
Sections of ascending colon, approximately 20 mm. long, from mature male gerbils (Meriones unguiculatus) weighing 70-80 g. were mounted in DeJalon's solution (154 mM NaCl; 5.95 mM NAHCO3 ; 278 mM glucose, 5.64 mM KCl and .27 mM Cacl2 in 20 ml. tissue baths) (L. and K Glass Co., Lynnhurst, N.J.). The medium was continually gassed with a mixture of 95% 02 -5% CO2 and maintained at 37°C. The tissues were suspended via silk suture threads between a glass hook at the base and a model FT .03C force displacement transducer (Grass Instrument, Quincy, Mass.).
After mounting, tissues were allowed to stabilize 15-20 minutes during which time adjustments were made to establish and maintain a 0.5 g. resting tension on the muscle. Thereafter, test cycles of 3-5 minutes were begun and consisted of a 1 minute exposure to the potential antagonist, if called for, followed by a 1 minute exposure to the prostaglandin agonist, a 15-30 sec. washout and a recovery period of 2-2.5 minutes. […] During the washout period, the tissue was rinsed with a measured amount equalling 8 volumes of medium. Muscle relaxation was virtually complete by the end of the washout period.
Following stabilization, muscles were exposed 2 to 3 times to this concentration of dl-PGE1 until a consistent response was recorded. Once maximal responses are established, test cycles with potential antagonists were commenced and were followed alternatively with prostaglandin-only test cycle. […] The contraction of the muscle induced by 200 ng./ml. dl-PGE1 following exposure to a given concentration of the potential antagonist was always compared to the response of the tissue to that level of dl-PGE1 in the immediately preceding cycle. Using a series of potential antagonist concentrations, an approximate ID50 (concentration at which 50% inhibition was observed) was established.

Row | SMILES | MIC [1] [µg/mL] | MIC [2] [µg/mL] | MIC [3] [µg/mL] | MIC [4] [µg/mL] | MIC [5] [µg/mL] | MIC [6] [µg/mL] | MIC (Trichophyton rubrum E 97) [µg/mL] | Percent Inhibition of gastric acid secretion (gastric acid secretion) [%] | minimal effective dose (diastolic blood pressure) [mg/kg] | MIC [7] [µg/mL] | ID50 vs. 20 ng. of PGE1 /ml. [8] [µg/mL]
1 | CCCCCC/C=C/[C@H]1CCC(=O)[C@@H]1CCCCCCC(=O)N1CCN(C)CC1 (relative stereo) | 10 (≈ 24.7 µM) | 25 (≈ 61.8 µM) | 25 (≈ 61.8 µM) | 25 (≈ 61.8 µM) | 10 (≈ 24.7 µM) | 25 (≈ 61.8 µM) | 25 (≈ 61.8 µM) | 36 | 4 | 10 (≈ 24.7 µM) | –
2 | CCC/C=C/[C@H]1CCC(=O)[C@@H]1CCCCCCC(=O)NCCCN(C)C (relative stereo) [N-(3-dimethylaminopropyl) 9-oxo-18,19,20-trinor-13-trans-prostenamide] | – | – | – | – | – | – | – | 87 | – | – | –
3 | CCCCCC/C=C/[C@H]1CCC(=O)[C@@H]1CCCCCCC(=O)N1CC2CCC(CC2)C1 (relative stereo) | – | – | – | – | – | – | – | – | – | – | 4
4 | CCCCCC/C=C/[C@H]1CCC(=O)[C@@H]1CCCCCCC(=O)NCCCN(C)C (relative stereo) | 10 (≈ 24.6 µM) | 100 (≈ 246 µM) | 50 (≈ 123 µM) | 100 (≈ 246 µM) | 10 (≈ 24.6 µM) | 100 (≈ 246 µM) | 100 (≈ 246 µM) | 76 | 0.4 | 25 (≈ 61.5 µM) | 0.5
5 | CCCCCC/C=C/[C@H]1CCC(=O)[C@@H]1CCCCCCC(=O)N1CCCC1 (relative stereo) | 5 (≈ 13.3 µM) | 100 (≈ 266 µM) | 50 (≈ 133 µM) | 50 (≈ 133 µM) | 5 (≈ 13.3 µM) | 10 (≈ 26.6 µM) | 25 (≈ 66.6 µM) | – | 8 | 50 (≈ 133 µM) | 1
6 | CCCCCC/C=C/[C@H]1CCC(=O)[C@@H]1CCCCCCC(=O)NN(C)C (relative stereo) [N-(dimethylamino)-9-oxo-13-trans-prostenamide] | 10 (≈ 27.4 µM) | 25 (≈ 68.6 µM) | 25 (≈ 68.6 µM) | 25 (≈ 68.6 µM) | 10 (≈ 27.4 µM) | 25 (≈ 68.6 µM) | 25 (≈ 68.6 µM) | 58 | 2 | 25 (≈ 68.6 µM) | 0.5
7 | CCCCCC/C=C/[C@H]1CCC(=O)[C@@H]1CCCCCCC(N)=O (relative stereo) [9-oxo-13-trans-prostenamide] | 10 (≈ 31.1 µM) | 50 (≈ 156 µM) | 50 (≈ 156 µM) | 50 (≈ 156 µM) | 25 (≈ 77.8 µM) | 50 (≈ 156 µM) | 50 (≈ 156 µM) | – | 2 | 25 (≈ 77.8 µM) | 5
